Earlier results on one molecule are cited in US6689400B2, “Process of obtaining compositions of stable lutein and lutein derivatives” (Sabinsa Corporation, priority 2001, dated 2004).

Structures are written as SMILES.

For data set [1] the following is noted: exposure to white fluorescent light, carefully controlled conditions.
For data set [2] the following is noted: room temperature or higher.

On to `CC1=C[C@H](O)CC(C)(C)[C@H]1/C=C/C(C)=C/C=C/C(C)=C/C=C/C=C(C)/C=C/C=C(C)/C=C/C1=C(C)C[C@@H](O)CC1(C)C` [lutein], for which the degradation of lutein in data set [1] is listed as 0.8-10.7 % per day. The stability result in data set [2] is given as “not stable”.
